Laboratory results: patent US20120270237A9, “METHODS FOR THE IDENTIFICATION OF KINASE INTERACTING MOLECULES AND FOR THE PURIFICATION OF KINASE PROTEINS” (Cellzone AG, priority 2009, published 2012)

Legend:
Assay in all cases: Kinobeads competition binding, HeLa Placenta lysate mix
Set-up in all cases: endogenous in cells
Details in all cases: 10 μM free compound
BCR = BCR (Homo sapiens, UniProt P11274)
Procedure, shortened: (§1)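 Read-out is iTRAQ reporter ion quantification by nano-LC-MS/MS, comparing a lysate aliquot pretreated with 10 μM free compound to a DMSO solvent control. Kinases not bound by free compound were pulled down on beads carrying the immobilized compound, separated by SDS-PAGE and digested with trypsin.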

DNAPK = DNAPK (Homo sapiens, UniProt P78527)
Procedure, shortened: as §1

JNK2 = JNK2 (Homo sapiens, UniProt P45984)
Procedure, shortened: as §1

LRRK2 = LRRK2 (Homo sapiens, UniProt Q5S007)
Procedure, shortened: as §1

MAP2K1 = MAP2K1 (Homo sapiens, UniProt Q02750)
Procedure, shortened: as §1

MAP2K6 = MAP2K6 (Homo sapiens, UniProt P52564)
Procedure, shortened: as §1

MAP3K2 = target: T1, MAP3K2 (Homo sapiens, UniProt Q9Y2U5)
T1 sequence (Q9Y2U5 1-619): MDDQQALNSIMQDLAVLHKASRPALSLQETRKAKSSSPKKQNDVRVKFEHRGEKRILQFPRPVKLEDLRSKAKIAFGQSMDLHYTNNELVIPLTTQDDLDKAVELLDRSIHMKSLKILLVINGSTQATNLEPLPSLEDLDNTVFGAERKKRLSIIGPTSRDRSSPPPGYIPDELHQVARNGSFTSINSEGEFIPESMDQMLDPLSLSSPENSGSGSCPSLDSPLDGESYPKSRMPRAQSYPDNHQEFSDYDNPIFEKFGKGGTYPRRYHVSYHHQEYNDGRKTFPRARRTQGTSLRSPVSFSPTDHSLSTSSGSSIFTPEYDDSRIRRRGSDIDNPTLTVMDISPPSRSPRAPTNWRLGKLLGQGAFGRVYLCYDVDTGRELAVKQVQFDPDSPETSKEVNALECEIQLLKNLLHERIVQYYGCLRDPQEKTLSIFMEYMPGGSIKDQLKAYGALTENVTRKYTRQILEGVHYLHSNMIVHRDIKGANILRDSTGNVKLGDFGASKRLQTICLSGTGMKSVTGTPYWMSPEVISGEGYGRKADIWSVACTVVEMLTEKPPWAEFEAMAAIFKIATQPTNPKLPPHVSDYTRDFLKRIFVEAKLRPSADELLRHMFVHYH
Procedure, shortened: as §1

MARK2 = MARK2 (Homo sapiens, UniProt Q7KZI7)
Procedure, shortened: as §1

PKD2 = target: T2, PKD2 (Homo sapiens, UniProt Q9BZL6)
T2 sequence (Q9BZL6 1-878): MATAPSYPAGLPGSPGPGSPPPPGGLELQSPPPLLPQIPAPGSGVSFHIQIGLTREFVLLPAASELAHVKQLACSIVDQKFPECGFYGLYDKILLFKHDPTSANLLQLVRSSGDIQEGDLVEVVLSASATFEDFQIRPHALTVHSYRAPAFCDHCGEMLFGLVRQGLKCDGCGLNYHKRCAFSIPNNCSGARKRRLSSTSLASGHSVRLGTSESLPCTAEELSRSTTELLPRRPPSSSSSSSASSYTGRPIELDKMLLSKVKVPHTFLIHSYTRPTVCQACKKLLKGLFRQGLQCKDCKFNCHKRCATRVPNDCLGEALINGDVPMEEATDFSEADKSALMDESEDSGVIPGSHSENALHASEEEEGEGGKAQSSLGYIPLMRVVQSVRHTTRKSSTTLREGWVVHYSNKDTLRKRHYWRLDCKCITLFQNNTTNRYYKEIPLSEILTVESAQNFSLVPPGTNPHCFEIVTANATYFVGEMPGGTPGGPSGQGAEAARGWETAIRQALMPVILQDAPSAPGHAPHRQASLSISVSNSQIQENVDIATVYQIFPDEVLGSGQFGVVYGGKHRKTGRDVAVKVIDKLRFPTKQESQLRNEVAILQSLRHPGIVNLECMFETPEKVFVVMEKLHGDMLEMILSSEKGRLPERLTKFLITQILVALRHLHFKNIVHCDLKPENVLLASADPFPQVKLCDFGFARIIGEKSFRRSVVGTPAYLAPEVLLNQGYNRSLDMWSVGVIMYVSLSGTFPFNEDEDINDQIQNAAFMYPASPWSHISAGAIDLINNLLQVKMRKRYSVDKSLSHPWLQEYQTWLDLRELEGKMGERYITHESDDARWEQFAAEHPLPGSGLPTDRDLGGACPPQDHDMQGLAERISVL
Procedure, shortened: as §1

RSK3 = RSK3 (Homo sapiens, UniProt Q15349)
Procedure, shortened: as §1

Chain of MAP2K1 (Q02750 whole entry): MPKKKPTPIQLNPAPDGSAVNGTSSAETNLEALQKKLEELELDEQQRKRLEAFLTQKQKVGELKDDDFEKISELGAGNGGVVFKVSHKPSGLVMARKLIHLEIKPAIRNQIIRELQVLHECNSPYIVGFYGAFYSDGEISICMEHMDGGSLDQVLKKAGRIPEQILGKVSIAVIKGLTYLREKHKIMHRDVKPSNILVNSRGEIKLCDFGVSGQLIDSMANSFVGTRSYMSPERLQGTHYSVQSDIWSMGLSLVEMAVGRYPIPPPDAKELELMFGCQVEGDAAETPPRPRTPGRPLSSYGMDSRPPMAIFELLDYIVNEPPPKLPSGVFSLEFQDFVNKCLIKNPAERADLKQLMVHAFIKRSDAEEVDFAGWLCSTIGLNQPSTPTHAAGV
Chain of BCR (P11274 whole entry): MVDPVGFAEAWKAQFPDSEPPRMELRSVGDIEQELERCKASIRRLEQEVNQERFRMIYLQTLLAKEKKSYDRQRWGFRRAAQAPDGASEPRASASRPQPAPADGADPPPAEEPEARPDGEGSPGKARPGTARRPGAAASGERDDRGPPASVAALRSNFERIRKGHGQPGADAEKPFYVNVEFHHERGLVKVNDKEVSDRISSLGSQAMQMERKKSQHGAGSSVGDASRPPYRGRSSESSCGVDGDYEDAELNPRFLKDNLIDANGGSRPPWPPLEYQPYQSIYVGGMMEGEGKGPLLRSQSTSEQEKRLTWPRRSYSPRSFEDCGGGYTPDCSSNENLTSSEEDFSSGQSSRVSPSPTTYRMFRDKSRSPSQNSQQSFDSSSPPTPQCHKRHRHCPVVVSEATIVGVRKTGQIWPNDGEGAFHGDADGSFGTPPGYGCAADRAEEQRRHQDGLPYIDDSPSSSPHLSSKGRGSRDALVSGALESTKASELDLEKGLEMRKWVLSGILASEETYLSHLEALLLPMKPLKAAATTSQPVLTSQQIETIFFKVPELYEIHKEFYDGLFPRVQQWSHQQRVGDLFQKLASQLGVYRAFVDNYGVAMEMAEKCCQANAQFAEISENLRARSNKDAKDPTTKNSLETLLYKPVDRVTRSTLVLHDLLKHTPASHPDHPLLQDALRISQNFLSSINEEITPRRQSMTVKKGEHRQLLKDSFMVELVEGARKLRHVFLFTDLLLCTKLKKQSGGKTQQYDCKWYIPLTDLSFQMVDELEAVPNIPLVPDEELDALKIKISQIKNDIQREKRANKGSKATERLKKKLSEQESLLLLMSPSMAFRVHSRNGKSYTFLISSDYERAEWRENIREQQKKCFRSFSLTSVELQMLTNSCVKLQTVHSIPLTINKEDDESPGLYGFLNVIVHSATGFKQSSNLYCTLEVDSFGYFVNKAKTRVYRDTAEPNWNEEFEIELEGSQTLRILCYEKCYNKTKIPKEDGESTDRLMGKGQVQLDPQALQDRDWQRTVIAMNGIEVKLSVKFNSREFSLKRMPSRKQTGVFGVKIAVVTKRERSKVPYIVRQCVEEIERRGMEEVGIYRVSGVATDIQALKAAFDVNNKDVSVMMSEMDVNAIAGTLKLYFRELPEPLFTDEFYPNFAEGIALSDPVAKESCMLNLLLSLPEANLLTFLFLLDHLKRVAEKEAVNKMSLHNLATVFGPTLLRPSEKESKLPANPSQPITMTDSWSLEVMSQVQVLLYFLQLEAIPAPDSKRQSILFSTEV
Chain of JNK2 (P45984 whole entry): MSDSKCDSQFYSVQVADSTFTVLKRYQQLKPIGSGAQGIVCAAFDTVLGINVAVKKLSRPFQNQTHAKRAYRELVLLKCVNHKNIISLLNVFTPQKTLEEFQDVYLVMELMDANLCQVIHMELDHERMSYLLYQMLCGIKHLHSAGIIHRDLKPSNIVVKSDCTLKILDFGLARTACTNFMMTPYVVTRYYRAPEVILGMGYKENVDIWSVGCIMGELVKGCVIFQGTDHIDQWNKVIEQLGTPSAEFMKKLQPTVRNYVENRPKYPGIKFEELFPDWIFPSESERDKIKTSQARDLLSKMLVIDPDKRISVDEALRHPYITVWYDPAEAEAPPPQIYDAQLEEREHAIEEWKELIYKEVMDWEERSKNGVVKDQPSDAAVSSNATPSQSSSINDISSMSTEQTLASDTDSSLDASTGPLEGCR
Chain of RSK3 (Q15349 whole entry): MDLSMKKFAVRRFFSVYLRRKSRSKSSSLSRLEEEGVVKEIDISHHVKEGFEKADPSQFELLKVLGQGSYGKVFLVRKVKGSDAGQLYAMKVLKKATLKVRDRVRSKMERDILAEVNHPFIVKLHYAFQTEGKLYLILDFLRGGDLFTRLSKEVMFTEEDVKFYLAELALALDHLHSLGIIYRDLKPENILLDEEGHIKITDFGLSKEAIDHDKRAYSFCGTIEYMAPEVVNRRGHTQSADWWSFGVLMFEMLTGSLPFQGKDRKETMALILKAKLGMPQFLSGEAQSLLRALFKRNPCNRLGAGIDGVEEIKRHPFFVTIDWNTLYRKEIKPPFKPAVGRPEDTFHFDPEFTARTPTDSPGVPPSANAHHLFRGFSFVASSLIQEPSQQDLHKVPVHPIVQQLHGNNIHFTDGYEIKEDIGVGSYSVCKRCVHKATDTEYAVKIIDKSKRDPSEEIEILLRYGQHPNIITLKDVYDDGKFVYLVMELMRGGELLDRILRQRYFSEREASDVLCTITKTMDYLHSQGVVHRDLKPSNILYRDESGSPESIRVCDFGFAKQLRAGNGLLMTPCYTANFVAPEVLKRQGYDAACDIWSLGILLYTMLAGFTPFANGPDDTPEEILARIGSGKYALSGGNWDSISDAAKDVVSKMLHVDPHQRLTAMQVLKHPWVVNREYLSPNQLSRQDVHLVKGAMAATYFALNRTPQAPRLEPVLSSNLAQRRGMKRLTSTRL
Chain of MARK2 (Q7KZI7 whole entry): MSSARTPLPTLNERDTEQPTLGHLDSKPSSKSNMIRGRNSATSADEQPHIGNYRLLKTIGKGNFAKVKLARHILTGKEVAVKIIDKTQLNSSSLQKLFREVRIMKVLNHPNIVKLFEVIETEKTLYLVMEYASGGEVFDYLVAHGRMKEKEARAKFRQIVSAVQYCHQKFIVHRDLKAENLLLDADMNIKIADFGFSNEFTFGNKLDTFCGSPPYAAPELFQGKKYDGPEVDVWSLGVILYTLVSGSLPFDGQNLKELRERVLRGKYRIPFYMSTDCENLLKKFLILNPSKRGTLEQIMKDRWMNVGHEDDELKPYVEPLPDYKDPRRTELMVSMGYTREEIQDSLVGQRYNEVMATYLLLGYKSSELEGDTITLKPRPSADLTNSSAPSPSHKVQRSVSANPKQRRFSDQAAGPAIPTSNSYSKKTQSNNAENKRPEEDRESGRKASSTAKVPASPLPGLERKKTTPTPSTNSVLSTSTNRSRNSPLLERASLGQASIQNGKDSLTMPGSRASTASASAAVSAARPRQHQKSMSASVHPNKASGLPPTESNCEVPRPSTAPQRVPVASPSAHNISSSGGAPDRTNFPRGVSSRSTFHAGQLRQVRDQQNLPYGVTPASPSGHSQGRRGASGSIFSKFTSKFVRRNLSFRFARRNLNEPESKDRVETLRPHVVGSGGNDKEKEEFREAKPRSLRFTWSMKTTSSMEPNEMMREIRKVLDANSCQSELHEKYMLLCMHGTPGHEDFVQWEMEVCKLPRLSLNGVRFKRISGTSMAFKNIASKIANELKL
Chain of MAP2K6 (P52564 whole entry): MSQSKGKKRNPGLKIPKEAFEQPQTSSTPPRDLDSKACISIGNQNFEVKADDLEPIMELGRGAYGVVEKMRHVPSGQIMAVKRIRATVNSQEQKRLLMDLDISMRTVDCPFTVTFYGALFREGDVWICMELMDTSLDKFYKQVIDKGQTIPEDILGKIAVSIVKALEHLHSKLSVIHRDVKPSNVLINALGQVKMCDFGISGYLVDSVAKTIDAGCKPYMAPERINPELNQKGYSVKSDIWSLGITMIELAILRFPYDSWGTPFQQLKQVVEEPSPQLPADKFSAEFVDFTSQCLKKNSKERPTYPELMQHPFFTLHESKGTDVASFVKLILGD

inhibition at 10 µM (BCR): 90.2%
inhibition at 10 µM (DNAPK): 69.2%
Competition % (JNK2): 83.1%
inhibition at 10 µM (LRRK2): 85.2%
inhibition at 10 µM (MAP2K1): 83.7%
inhibition at 10 µM (MAP2K6): 89.2%
inhibition at 10 µM (MAP3K2): 93.9%
inhibition at 10 µM (MARK2): 93.7%
inhibition at 10 µM (PKD2): 95.4%
inhibition at 10 µM (RSK3): 94.8%
SMILES: CS(=O)(=O)Nc1ccccc1Nc1nc(Nc2cccc(OCCN)c2)ncc1Cl [CZC31326, N-(2-(2-(3-(2-aminoethoxy)phenylamino)-5-chloropyrimidin-4-ylamino)phenyl)methanesulfonamide]
